The source made the active and inactive calls. The rule behind the calls is not given here.
How the values were obtained:
[1] = biological target: T1, ATP-dependent Clp protease proteolytic subunit (Staphylococcus aureus (strain NCTC 8325)) (UniProt Q2G036); test: Agonist activity at Staphylococcus aureus ClpP using Suc-LY-AMC as substrate at 10 to 100 uM measured every 5 mins for 1 hr by fluorescence based analysis; settings: dose 10-100 µM
T1 sequence (whole entry): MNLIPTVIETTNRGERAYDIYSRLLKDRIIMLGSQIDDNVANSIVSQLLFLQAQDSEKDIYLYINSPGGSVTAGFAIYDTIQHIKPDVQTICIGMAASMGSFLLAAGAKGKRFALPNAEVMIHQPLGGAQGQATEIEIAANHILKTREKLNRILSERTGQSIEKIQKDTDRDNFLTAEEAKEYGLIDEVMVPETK

Escherichia coli = test: Antibacterial activity against Escherichia coli ATCC25922 assessed as reduction in bacterial growth; format: functional
[2] = Antiproliferative activity against rat H9c2 cells assessed as inhibition of cell growth measured after 72 hrs by CCK-8 method; format: toxicity, cell-based
[3] = Antiproliferative activity against human HCoEpiC cells assessed as inhibition of cell growth measured after 72 hrs by CCK-8 method; format: toxicity, cell-based
HCT-116 [4] = test: Induction of ROS generation in human HCT-116 cells assessed as increase in intracellular ROS level measured after 48 hrs DCFH-DA staining based analysis; format: functional, cell-based
HCT-116 [5] = test: Inhibition of mitochondrial function in human HCT-116 cells assessed as reduction in ATP production; format: functional, cell-based
HCT-116 [6] = test: Antiproliferative activity against human HCT-116 cells assessed reduction in clone formation measured after 48 hrs by crystal violet staining based analysis; format: functional, cell-based
HCT-116 [7] = test: Induction of apoptosis in human HCT-116 cells measured after 48 hrs by annexin V-FITC/7-AAD based flow cytometry analysis; format: functional, cell-based
HCT-116 [8] = test: Induction of apoptosis in human HCT-116 cells assessed as apoptotic rate at medium dose measured after 48 hrs by annexin V-FITC/7-AAD based flow cytometry analysis relative to control; format: functional
HCT-116 [9] = test: Induction of apoptosis in human HCT-116 cells assessed as cell death at 2 uM measured after 48 hrs by annexin V-FITC/7-AAD based flow cytometry analysis relative to control; format: functional
HCT-116 [10] = test: Induction of apoptosis in human HCT-116 cells assessed as reduction in SDHB expression measured after 48 hrs by Western blot analysis; format: functional, cell-based; settings: dose 0.5-2 µM
HCT-116 [11] = test: Induction of cell cycle arrest in human HCT-116 cells assessed as effect on number of cells at G1 phase at 0.5 to 2 uM measured after 48 hrs by PI staining based flow cytometry analysis; format: functional; settings: dose 0.5-2 µM
HCT-116 [12] = test: Induction of cell cycle arrest in human HCT-116 cells assessed as increase in number of cells at G2 phase at high dose measured after 48 hrs by PI staining based flow cytometry analysis; format: functional
[13] = Acute toxicity in BALB/c mouse assessed as effect on heart at 50 mg/kg, iv administered as single dose measured upto 14 days by H and E staining based analysis; format: organism-based; settings: in vivo, 336 h, time < 14 day
[14] = Acute toxicity in BALB/c mouse assessed as effect on spleen at 50 mg/kg, iv administered as single dose measured upto 14 days by H and E staining based analysis; format: organism-based; settings: in vivo, 336 h, time < 14 day
[15] = Acute toxicity in BALB/c mouse assessed as effect on lung at 50 mg/kg, iv administered as single dose measured upto 14 days by H and E staining based analysis; format: organism-based; settings: in vivo, 336 h, time < 14 day
[16] = Acute toxicity in BALB/c mouse assessed as effect on kidney at 50 mg/kg, iv administered as single dose measured upto 14 days by H and E staining based analysis; format: organism-based; settings: in vivo, 336 h, time < 14 day
[17] = Acute toxicity in BALB/c mouse assessed as effect on body weight at middle to high dose iv measured upto 21 days relative to control; format: organism-based; settings: in vivo, 504 h, time < 21 day
HCT-116 [18] = test: Antitumor activity against human HCT-116 cells xenografted in BALB/c nude mouse model assessed as reduction in tumor volume at 1.25 mg/kg,iv administered twice weekly and measured upto 21 days relative to control; format: functional; set-up: scale not given: the % may be the effect or the level left; settings: time <= 21 day
HCT-116 [19] = test: Antitumor activity against human HCT-116 cells xenografted in BALB/c nude mouse model assessed as reduction in tumor volume at 2.5 mg/kg,iv administered twice weekly and measured upto 21 days relative to control; format: functional; set-up: scale not given: the % may be the effect or the level left; settings: time <= 21 day
HCT-116 [20] = test: Antitumor activity against human HCT-116 cells xenografted in BALB/c nude mouse model assessed as reduction in tumor weight at middle dose administered as iv twice weekly and measured upto 21 days; format: functional; settings: time <= 21 day
HCT-116 [21] = test: Antitumor activity against human HCT-116 cells xenografted in BALB/c nude mouse model assessed as reduction in SDHB expression at upto 5 mg/kg, iv administered twice weekly by Western blot analysis; format: functional, organism-based
HCT-116 [22] = test: Antitumor activity against human HCT-116 cells xenografted in BALB/c nude mouse model assessed as decrease in Bcl-2 expression at upto 5 mg/kg, iv administered twice weekly by Western blot analysis; format: functional, organism-based
HCT-116 [23] = test: Antitumor activity against human HCT-116 cells xenografted in BALB/c nude mouse model assessed as increase in Bax expression at upto 5 mg/kg, iv administered twice weekly by Western blot analysis; format: functional, organism-based
[24] = Toxicity in BALB/c nude mouse assessed as effect on kidney at 1.25 to 5 mg/kg, iv administered twice weekly and measured after 21 days by H and E staining based analysis; format: organism-based; settings: in vivo, 504 h, dose 1.25-5 mg/kg, time 21 day
[25] = Cmax in Sprague-Dawley rat at 10 mg/kg, iv by LC-MS/MS analysis; format: ADME, organism-based; settings: in vivo
[26] = Half life in Sprague-Dawley rat at 10 mg/kg, iv by LC-MS/MS analysis; format: ADME, organism-based; settings: in vivo
[27] = Cmax in Sprague-Dawley rat at 10 mg/kg, po by LC-MS/MS analysis; format: ADME, organism-based; settings: in vivo
[28] = Tmax in Sprague-Dawley rat at 10 mg/kg, po by LC-MS/MS analysis; format: ADME, organism-based; settings: in vivo
[29] = MRT (0 to 12hrs) in Sprague-Dawley rat at 10 mg/kg, po by LC-MS/MS analysis; format: ADME, organism-based; settings: in vivo
[30] = Metabolic stability in human liver microsomes assessed as half life at 1 uM measured upto 60 mins in presence of NADPH regenerating system by LC-MS/MS analysis; format: ADME, Microsome
HCT-116 [31] = test: Upregulation of DDIT3 expression in human HCT-116 cells measured after 48 hrs by Western blot analysis; format: functional, cell-based
HCT-116 [32] = test: Upregulation of ATF3 mRNA expression in human HCT-116 cells by RT-PCR analysis; format: functional, cell-based
HCT-116 [33] = test: Upregulation of DDIT4 expression in human HCT-116 cells measured after 48 hrs by Western blot analysis; format: functional, cell-based
HCT-116 [34] = test: Upregulation of JUN expression in human HCT-116 cells measured after 48 hrs by Western blot analysis; format: functional, cell-based
HCT-116 [35] = test: Upregulation of CHAC1 expression in human HCT-116 cells measured after 48 hrs by Western blot analysis; format: functional, cell-based
HCT-116 [36] = test: Effect on DDIT4 expression in ClpP knockdown human HCT-116 cells at 2 uM measured after 48 hrs by Western blot analysis; format: functional, cell-based
HCT-116 [37] = test: cells; settings: Homo sapiens, HCT-116, 72 h
Description: Antiproliferative activity against human HCT-116 cells assessed as inhibition of cell growth measured after 72 hrs by CCK-8 method

Q: With N#Cc1cccc(CN2CCC=C(C(=O)NCc3ccc(C(F)(F)F)cc3)C2)c1 as the compound, how does the Activity [1] read?
A: inactive

Q: What about the MIC (Escherichia coli) of the same compound?
A: > 128 µg/mL

Q: What about the IC50 at 72 h [2] of the same compound?
A: 60.6 µM

Q: And the IC50 at 72 h [3]?
A: 75.2 µM

Q: And the Activity (HCT-116 [4])?
A: Active

Q: And the inhibition (HCT-116 [5])?
A: Active

Q: What about the Activity (HCT-116 [6]) of the same compound?
A: Dose-Dependent Effect

Q: And the Activity (HCT-116 [7])?
A: Dose-Dependent Effect

Q: And the Activity (HCT-116 [8])?
A: 46%

Q: What about the Activity (HCT-116 [9]) of the same compound?
A: 60%

Q: And the Activity (HCT-116 [10])?
A: Dose-Dependent Effect

Q: And the Activity (HCT-116 [11])?
A: inactive

Q: What about the Activity (HCT-116 [12]) of the same compound?
A: ~40%

Q: What about the Activity [13] of the same compound?
A: Non-Toxic

Q: And the Activity [14]?
A: Non-Toxic

Q: And the Activity [15]?
A: Non-Toxic

Q: And the Activity [16]?
A: Non-Toxic

Q: What about the Activity [17] of the same compound?
A: Non-Toxic

Q: And the Activity (HCT-116 [18])?
A: 55.1%

Q: And the Activity (HCT-116 [19])?
A: 70%

Q: And the Activity (HCT-116 [20])?
A: 250 mg

Q: What about the Activity (HCT-116 [21]) of the same compound?
A: Active

Q: And the Activity (HCT-116 [22])?
A: Active

Q: And the Activity (HCT-116 [23])?
A: Active

Q: And the Activity [24]?
A: Non-Toxic

Q: And the Cmax [25]?
A: 966 ng/mL

Q: What about the half-life [26] of the same compound?
A: 288 min

Q: And the Cmax [27]?
A: 137 ng/mL

Q: And the Tmax [28]?
A: 5.4 h

Q: And the MRT last [29]?
A: 6.7 h

Q: What about the half-life at 1 µM [30] of the same compound?
A: 6.1 min

Q: And the Activity (HCT-116 [31])?
A: Active

Q: What about the Activity (HCT-116 [32]) of the same compound?
A: Active

Q: And the Activity (HCT-116 [33])?
A: Active

Q: And the Activity (HCT-116 [34])?
A: Active

Q: And the Activity (HCT-116 [35])?
A: Active

Q: What about the Activity (HCT-116 [36]) of the same compound?
A: inactive

Q: And the IC50 (HCT-116 [37])?
A: 1000 nM

From ChEMBL document CHEMBL5528050, “Discovery of a Novel Series of Homo sapiens Caseinolytic Protease P Agonists for Colorectal Adenocarcinoma Treatment via ATF3-Dependent Integrated Stress Response” (J Med Chem, 2024)
